Assay results taken from patent US20250296939A1, “BENZOTHIOPHENE COMPOUND” (Kyoto Pharmaceutical Industries, Ltd., priority 2022, published 2025).

Experiments:
[1] = target: GST-fused human Keap1 (amino acid residues: 325-642) protein (Homo sapiens (Human), UniProt Q14145); assay: FP assay (in vitro): inhibition of binding between Nrf2 and Keap1 by fluorescence polarization; conditions: 20 nM GST-fused human Keap1, 10 nM FITC-labeled Nrf2 peptide, 2 hr at room temperature
[2] = tested on: NQO1 activity in Hepa1c1c7 cells; assay: NAD(P)H: quinone oxidoreductase-1 (NQO1) enzyme induction assay (in vitro); type: cell-based, mouse; conditions: Mus musculus, Hepa-1c1c7, NQO1 activity upon addition of 400 nM of test compound, about 48 hr, ratio from the base without the compound
Method in brief: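 Mouse Hepa1c1c7 hepatoma cells were treated with 400 nM compound for about 48 h, then lysed with digitonin/EDTA. NQO1 activity was measured as menadione-mediated MTT reduction with a G6P/G6PDH NADPH-regenerating system, stopped with dicoumarol, and read at A610. Values are the activity ratio versus untreated base wells.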

GST-fused human Keap1 (amino acid residues: 325-642) protein, sequence (Q14145 325-624 limits assumed): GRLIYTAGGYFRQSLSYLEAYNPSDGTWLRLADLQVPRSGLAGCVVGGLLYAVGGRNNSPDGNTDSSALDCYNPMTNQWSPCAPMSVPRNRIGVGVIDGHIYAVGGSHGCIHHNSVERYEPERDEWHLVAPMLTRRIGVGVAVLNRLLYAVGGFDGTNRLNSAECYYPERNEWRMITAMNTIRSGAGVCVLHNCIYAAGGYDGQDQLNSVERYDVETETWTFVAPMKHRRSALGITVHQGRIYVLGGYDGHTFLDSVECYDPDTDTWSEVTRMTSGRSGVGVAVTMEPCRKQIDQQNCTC

Row | SMILES | IC50 [1] | fold induction at 0.4 µM [2]
1 | CC[C@@H]1CN(Cc2cc([C@@H](CC(=O)O)c3ccc4c(nnn4C)c3C)cc3ccsc23)Cc2nc(N)ccc2O1 [Example 55, (3R)-3-(7-{[(2R)-7-Amino-2-ethyl-2,3-dihydropyrido[2,3-f][1,4]oxazepin-4(5H)-yl]methyl}-1-benzothiophen-5-yl)-3-(1,4-dimethyl-1H-benzotriazol-5-yl)propanoic acid] | ≤ 10 nM | > 5
2 | CC[C@@H]1CN(Cc2cc([C@H](CC(=O)O)c3ccc4c(nnn4C)c3C)cc3ccsc23)Cc2nc(N)ccc2O1 [Example 56, (3S)-3-(7-{[(2R)-7-Amino-2-ethyl-2,3-dihydropyrido[2,3-f][1,4]oxazepin-4(5H)-yl]methyl}-1-benzothiophen-5-yl)-3-(1,4-dimethyl-1H-benzotriazol-5-yl)propanoic acid] | ≤ 10 nM | > 5
3 | CC[C@@H]1CN(Cc2cc(C(CC(=O)O)c3ccc4c(nnn4CCCS(C)(=O)=O)c3C)cc3ccsc23)Cc2nc(O)ccc2O1 (stereo partly drawn) [Example 62, 3-(7-{[(2R)-2-Ethyl-7-hydroxy-2,3-dihydropyrido[2,3-f][1,4]oxazepin-4(5H)-yl]methyl}-1-benzothiophen-5-yl)-3-{4-methyl-1-[3-(methylsulfonyl)propyl]-1H-benzotriazol-5-yl}propanoic acid] | 10 to 30 nM | > 5
4 | CC[C@@H]1CN(Cc2cc([C@@H](CC(=O)O)c3cnc4c(nnn4C)c3C)cc3ccsc23)Cc2nc(N)ccc2O1 [Example 67, (3R)-3-(7-{[(2R)-7-Amino-2-ethyl-2,3-dihydropyrido[2,3-f][1,4]oxazepin-4(5H)-yl]methyl}-1-benzothiophen-5-yl)-3-(3,7-dimethyl-3H-[1,2,3]triazolo[4,5-b]pyridin-6-yl)propanoic acid] | 10 to 30 nM | > 5
5 | CC[C@@H]1CN(Cc2cc([C@H](CC(=O)O)c3cnc4c(nnn4C)c3C)cc3ccsc23)Cc2nc(N)ccc2O1 [Example 68, (3S)-3-(7-{[(2R)-7-Amino-2-ethyl-2,3-dihydropyrido[2,3-f][1,4]oxazepin-4(5H)-yl]methyl}-1-benzothiophen-5-yl)-3-(3,7-dimethyl-3H-[1,2,3]triazolo[4,5-b]pyridin-6-yl)propanoic acid] | 10 to 30 nM | > 5

Now from value to molecule, other results behind:

Row | IC50 [1] | SMILES | fold induction at 0.4 µM [2]
6 | 10 to 30 nM | CC[C@@H]1CN(Cc2cc(C(CC(=O)O)c3ccc4c(nnn4C)c3C)cc3ccsc23)Cc2nc(F)ccc2O1 (stereo partly drawn) [Example 57, 3-(1,4-Dimethyl-1H-benzotriazol-5-yl)-3-(7-{[(2R)-2-ethyl-7-fluoro-2,3-dihydropyrido[2,3-f][1,4]oxazepin-4(5H)-yl]methyl}-1-benzothiophen-5-yl)propanoic acid] | > 5
7 | 30 to 300 nM | CC[C@@H]1Cc2cccnc2CN(Cc2cc(C(CC(=O)O)c3ccc4c(nnn4C)c3C)cc3ccsc23)C1 (stereo partly drawn) [Example 63, 3-(1,4-Dimethyl-1H-benzotriazol-5-yl)-3-(7-{[(6R)-6-ethyl-5,6,7,9-tetrahydro-8H-pyrido[2,3-c]azepin-8-yl]methyl}-1-benzothiophen-5-yl)propanoic acid] | 3 to 5
8 | 30 to 300 nM | CC[C@H]1Cc2cccnc2CN(Cc2cc(C(CC(=O)O)c3ccc4c(nnn4C)c3C)cc3ccsc23)C1 (stereo partly drawn) [Example 64, 3-(1,4-Dimethyl-1H-benzotriazol-5-yl)-3-(7-{[(6S)-6-ethyl-5,6,7,9-tetrahydro-8H-pyrido[2,3-c]azepin-8-yl]methyl}-1-benzothiophen-5-yl)propanoic acid] | > 5
9 | 10 to 30 nM | CC[C@H]1Cc2cccnc2CN(Cc2cc([C@@H](CC(=O)O)c3ccc4c(nnn4C)c3C)cc3ccsc23)C1 [Example 69, (3R)-3-(1,4-Dimethyl-1H-benzotriazol-5-yl)-3-(7-{[(6S)-6-ethyl-5,6,7,9-tetrahydro-8H-pyrido[2,3-c]azepin-8-yl]methyl}-1-benzothiophen-5-yl)propanoic acid] | > 5
